From patent publication US10085449B2, “N-[1-((6-chloropyridin-3-yl)methyl)pyridin-2(1H)-ylidene]-2,2,2- trifluoroacetamide for control of agricultural/horticultural pests” (priority 2010, dated 2018)
Like-named read-outs stand apart in the source and are kept apart here.

How the values were obtained:
Assay type in all cases: in vivo
diamondback moth = experiment: whole plant or invertebrate; details: Plutella xylostella, foliar
Description: (§1) Leaf discs 5.0 cm in diameter were cut from cabbage plants grown in pots, and these were sprayed with solutions of the inventive compounds at a predetermined concentration prepared to 50% acetone/water (containing 0.05% Tween 20). The treated leaf discs were air dried, following which second-instar larvae were released onto the discs. The leaf discs and larvae were then held in an incubation chamber at 25° C. (16-hour period of light, 8-hour dark period). Three days after released, the numbers of live and dead insects were counted, and the mortality was calculated from the following formula. This was a two-replication test. Mortality (%)=[number of dead insects/(number of live insects+number of dead insects)]×100

common cutworm = experiment: whole plant or invertebrate; details: for Insecticidal effects (mortality), common cutworm third-instar larvae: foliar application, 500 ppm
Description: as §1, with “third-instar” for “second-instar”

cotton aphid = experiment: whole plant or invertebrate; details: Aphis gossypii, foliar
Description: as §1, with “2.0” for “5.0”, “cucumber” for “cabbage”, “first-instar” for “second-instar”

western flower thrips = experiment: whole plant or invertebrate; details: Frankliniella occidentalis, foliar
Description: as §1, with “2.8” for “5.0”, “bean” for “cabbage”, “first-instar” for “second-instar”

rice leaf bug = experiment: whole plant or invertebrate; details: foliar, 72 h
Description: The treated seedlings were air-dried, then each was placed in a glass cylinder and two second-instar rice leaf bug larvae were released within the same glass cylinder. Following release of the insects, the tube was capped and held in an incubation chamber at 25° C. (16-hour period of light, 8-hour dark period). […] Three days after released, the numbers of live and dead insects were counted, and the mortality was calculated from the following formula. Mortality (%)=[number of dead insects/(number of live insects+number of dead insects)]×100

small brown planthopper [1] = experiment: whole plant or invertebrate; details: Laodelphax striatellus, in Triticum aestivum, 96 h
Description: Wheat seedling roots 48 hours after sowing were treated with solutions of the inventive compounds at a predetermined concentration prepared to 10% acetone/water. After allowing the roots to absorb the chemical for 72 hours, ten second-instar small brown planthopper larvae were released onto each seedling. The treated seedlings and larvae were then held in an incubation chamber at 25° C. (16-hour period of light, 8-hour dark period). Four days after released, the numbers of live and dead insects were counted, and the mortality was calculated from the following formula. The test was carried out as two replications. Mortality (%)=[number of dead insects/(number of live insects+number of dead insects)]×100

small brown planthopper [2] = experiment: whole plant or invertebrate; details: Laodelphax striatellus, 72 h
Description: (§2) Rice seedlings grown in pots were subjected to soil drenching treatment with solutions of the inventive compounds at a predetermined concentration prepared to 10% acetone/water. Three days following treatment, ten second-instar small brown planthopper larvae were released onto each seedling. The treated seedlings and larvae were then held in an incubation chamber at 25° C. (16-hour period of light, 8-hour dark period). Three days after released, the numbers of live and dead insects were counted, and the mortality was calculated from the following formula. The test was carried out as two replications. Mortality (%)=[number of dead insects/(number of live insects+number of dead insects)]×100

[3] = system: brown rice planthopper having a low susceptibility to insecticides; set-up: key to Brown rice planthopper, Kumamoto low susceptibility (rice soil drenching), effect: mortality %, dead/(live+dead) ×100; details: rice soil drenching, 0.05 mg/pot
Description: as §2, with “days after” for “days following”, “second-instar” for “second-instar small”, “brown rice” for “brown”, “larvae having a low susceptibility to insecticides” for “larvae”, “The” for “The treated”, “and insects” for “and larvae”
The pests used in this test were insects that had been raised indoors for successive generations over a long period of time (susceptible line), and insects that had been raised indoors for successive generations after being collected (I) in 2007 within Kumamoto Prefecture and (II) in 2005 within Fukuoka Prefecture (field-collected lines).

[4] = read-out: Insecticidal effects (mortality), diamondback moth second-instar larvae
[5] = read-out: Insecticidal effects (mortality), cotton aphid first-instar larvae
[6] = read-out: Insecticidal effects (mortality), western flower thrips first-instar larvae
[7] = read-out: Insecticidal effects (mortality), small brown planthopper second-instar larvae
[8] = rice soil drenching, 0.05 mg/pot (Table 13), read-out: Small brown planthopper (rice soil drenching), effect
[9] = soil, read-out: Insecticidal effects (mortality), small brown planthopper second-instar larvae
[10] = rice soil drenching, 0.01 mg/pot (Table 13), read-out: Small brown planthopper (rice soil drenching), effect
[11] = soil, read-out: Small brown planthopper (rice soil drenching), effect

## O=C(N=c1ccccn1Cc1cnc(Cl)nc1)C(F)(F)F [Compound 243, N-[1-((2-chloropyrimidin-5-yl)methyl)pyridin-2(1H)-ylidene]-2,2,2-trifluoroacetamide]
Diamondback moth; [4]
  mortality at 100 ppm: 100%
  mortality at 500 ppm: 100%
Diamondback moth; in Brassica oleracea, 72 h
  mortality at 100 ppm: ≥ 80%
  mortality at 500 ppm: ≥ 80%
Common cutworm
  Insecticidal effects (mortality), common cutworm third-instar larvae: 10
Cotton aphid; [5]
  mortality at 1.25 ppm: 80%
  mortality at 5 ppm: 100%
  mortality at 100 ppm: 100%
  mortality at 500 ppm: 100%
Cotton aphid; in Cucumis sativus, 72 h
  mortality at 20 ppm: ≥ 80%
  mortality at 100 ppm: ≥ 80%
  mortality at 500 ppm: ≥ 80%
Western flower thrips; 72 h
  mortality at 500 ppm: ≥ 80%
Western flower thrips; [6]
  mortality at 500 ppm: 100%
Rice leaf bug
  mortality at 50 ppm: ≥ 80%
Small brown planthopper [1]; [7]
  mortality at 0.5 mg/seedling: 100%
  mortality at 2 mg/seedling: 100%
  mortality at 20 mg/seedling: 100%
Small brown planthopper [2]; [8]
  pest or weed control at 0.05 mg/pot: 100%
Small brown planthopper [2]; soil
  mortality at 0.05 mg/seedling: ≥ 80%
Small brown planthopper [2]; [9]
  mortality at 0.05 mg/pot: 100%

## O=C(CCl)N=c1ccccn1Cc1ccc(Cl)nc1 [Compound 236, 2-chloro-N-[1-((6-chloropyridin-3-yl)methyl)pyridin-2(1H)-ylidene]acetamide]
Cotton aphid; in Cucumis sativus, 72 h
  mortality at 20 ppm: ≥ 80%
  mortality at 100 ppm: ≥ 80%
Rice leaf bug
  mortality at 50 ppm: ≥ 80%

## O=C(N=c1ccccn1Cc1ccc(Cl)nc1)C(F)(F)Cl [Compound 239, 2-chloro-N-[1-((6-chloropyridin-3-yl)methyl)pyridin-2(1H)-ylidene]-2,2-difluoroacetamide]
Diamondback moth; [4]
  mortality at 20 ppm: 100%
  mortality at 100 ppm: 100%
  mortality at 500 ppm: 100%
Diamondback moth; in Brassica oleracea, 72 h
  mortality at 100 ppm: ≥ 80%
  mortality at 500 ppm: ≥ 80%
Common cutworm
  Insecticidal effects (mortality), common cutworm third-instar larvae: 90
Common cutworm; foliar, 72 h
  mortality at 500 ppm: ≥ 80%
Cotton aphid; [5]
  mortality at 20 ppm: 100%
  mortality at 100 ppm: 100%
  mortality at 500 ppm: 100%
Cotton aphid; in Cucumis sativus, 72 h
  mortality at 20 ppm: ≥ 80%
  mortality at 100 ppm: ≥ 80%
  mortality at 500 ppm: ≥ 80%
Western flower thrips; [6]
  mortality at 500 ppm: 40%
Rice leaf bug
  mortality at 50 ppm: ≥ 80%
Small brown planthopper [1]
  mortality at 20 µg/seedling: ≥ 80%
Small brown planthopper [1]; [7]
  mortality at 0.25 mg/seedling: 100%
  mortality at 0.5 mg/seedling: 100%
  mortality at 2 mg/seedling: 100%
  mortality at 20 mg/seedling: 100%
Small brown planthopper [2]; rice soil drenching, 0.005 mg/pot (Table 13), read-out: Small brown planthopper (rice soil drenching), effect
  pest or weed control at 0.005 mg/pot: 30%
Small brown planthopper [2]; [10]
  pest or weed control at 0.01 mg/pot: 80%
Small brown planthopper [2]; [8]
  pest or weed control at 0.05 mg/pot: 100%
Small brown planthopper [2]; soil
  mortality at 0.05 mg/seedling: ≥ 80%
Small brown planthopper [2]; [9]
  mortality at 0.005 mg/pot: 30%
  mortality at 0.01 mg/pot: 80%
  mortality at 0.05 mg/pot: 100%

## O=C(/C=C1\NCCN1Cc1ccc(Cl)nc1)C(F)(F)F [Comparative Example 4, 3-[1-((6-chloropyridin-3-yl)methyl)imidazolidin-2-ylidene]-1,1,1-trifluoropropan-2-one, reference compound]
Small brown planthopper [2]; [10]
  pest or weed control at 0.01 mg/pot: 20%
Small brown planthopper [2]; [8]
  pest or weed control at 0.05 mg/pot: 100%
[3]
  Brown rice planthopper, Kumamoto low susceptibility (rice soil drenching), effect: 45

## O=C(C(C(=O)C(F)(F)F)=C1NCCN1Cc1ccc(Cl)nc1)C(F)(F)F [Comparative Example 6, 3-[1-((6-chloropyridin-3-yl)methyl)imidazolidin-2-ylidene]-1,1,1,5,5,5-hexafluoropentan-2,4-dione, reference compound]
Small brown planthopper [2]; [11]
  pest or weed control at 0.01 mg/pot: 20%
  pest or weed control at 0.05 mg/pot: 100%
[3]
  Brown rice planthopper, Kumamoto low susceptibility (rice soil drenching), effect: 25

## O=C(N=c1ccccn1Cc1ccc(Cl)nc1)C(F)(F)C(F)(F)F [Compound 242, N-[1-((6-chloropyridin-3-yl)methyl)pyridin-2(1H)-ylidene]-2,2,3,3,3-pentafluoropropanamide]
Diamondback moth; [4]
  mortality at 100 ppm: 100%
  mortality at 500 ppm: 100%
Diamondback moth; in Brassica oleracea, 72 h
  mortality at 100 ppm: ≥ 80%
  mortality at 500 ppm: ≥ 80%
Common cutworm
  Insecticidal effects (mortality), common cutworm third-instar larvae: 60
Cotton aphid; [5]
  mortality at 1.25 ppm: 35%
  mortality at 5 ppm: 80%
  mortality at 20 ppm: 100%
  mortality at 100 ppm: 100%
Cotton aphid; in Cucumis sativus, 72 h
  mortality at 20 ppm: ≥ 80%
  mortality at 100 ppm: ≥ 80%
Western flower thrips; 72 h
  mortality at 500 ppm: ≥ 80%
Western flower thrips; [6]
  mortality at 100 ppm: 76%
  mortality at 500 ppm: 100%
Rice leaf bug
  mortality at 50 ppm: ≥ 80%
Small brown planthopper [1]; [7]
  mortality at 0.5 mg/seedling: 100%
  mortality at 2 mg/seedling: 100%
  mortality at 20 mg/seedling: 100%
Small brown planthopper [2]; [8]
  pest or weed control at 0.05 mg/pot: 100%
Small brown planthopper [2]; soil
  mortality at 0.05 mg/seedling: ≥ 80%
Small brown planthopper [2]; [9]
  mortality at 0.05 mg/pot: 100%

## O=C(/N=C1\NCCN1Cc1ccc(Cl)nc1)C(F)(F)F [Comparative Example 7, N-[1-((6-chloropyridin-3-yl)methyl)imidazolidin-2-ylidene]-2,2,2-trifluoroacetamide, reference compound]
Small brown planthopper [2]; [10]
  pest or weed control at 0.01 mg/pot: 5%
Small brown planthopper [2]; [8]
  pest or weed control at 0.05 mg/pot: 63%
[3]
  Brown rice planthopper, Kumamoto low susceptibility (rice soil drenching), effect: 20

## O=C(/C=C1\SCCN1Cc1ccc(Cl)nc1)C(F)(F)F [Comparative Example 5, 3-[3-((6-chloropyridin-3-yl)methyl)thiazolidin-2-ylidene]-1,1,1-trifluoropropan-2-one, reference compound]
Small brown planthopper [2]; [10]
  pest or weed control at 0.01 mg/pot: 15%
Small brown planthopper [2]; [8]
  pest or weed control at 0.05 mg/pot: 95%
[3]
  Brown rice planthopper, Kumamoto low susceptibility (rice soil drenching), effect: 25
